Test results as given in the NIST ThermoML archive (doi:10.1016/j.fluid.2007.12.007).

Tests used:
[1] = 101.33 kPa, Liquid
[2] = xn = mol fraction of the nth substance listed; settings: 101 kPa, Liquid

NC=O [formamide]
[1]
Settings	speed of sound [m/s]	viscosity [mPa·s]
293.15 K	1615.8	3.654
298.15 K	1601	3.322
303.15 K	1589.2	2.966
308.15 K	1577.2	2.653
313.15 K	1565.1	2.404
318.15 K	1553.1	2.219

CCCCO [butan-1-ol]
[1]
Settings	speed of sound [m/s]	viscosity [mPa·s]
293.15 K	1262.4	2.936
298.15 K	1242.6	2.542
303.15 K	1224.6	2.275
308.15 K	1207.6	1.998
313.15 K	1189.2	1.744
318.15 K	1170	1.571

NC=O [formamide] + CCCCO
[2]
Settings	speed of sound [m/s]	viscosity [mPa·s]
293.15 K, x1 = 0.1093	1302.3	3.225
293.15 K, x1 = 0.2057	1337.7	3.446
293.15 K, x1 = 0.3138	1377	3.598
293.15 K, x1 = 0.4104	1412	3.696
293.15 K, x1 = 0.5115	1448.4	3.754
293.15 K, x1 = 0.6124	1484.4	3.777
293.15 K, x1 = 0.7081	1518	3.77
293.15 K, x1 = 0.8123	1554	3.744
293.15 K, x1 = 0.9086	1586.4	3.708
298.15 K, x1 = 0.1093	1281.2	2.81
298.15 K, x1 = 0.2057	1315.3	3.018
298.15 K, x1 = 0.3138	1353.7	3.181
298.15 K, x1 = 0.4104	1388.3	3.285
298.15 K, x1 = 0.5115	1424.6	3.352
298.15 K, x1 = 0.6124	1461	3.386
298.15 K, x1 = 0.7081	1495.5	3.389
298.15 K, x1 = 0.8123	1533.1	3.379
298.15 K, x1 = 0.9086	1567.9	3.355
303.15 K, x1 = 0.1093	1261.5	2.506
303.15 K, x1 = 0.2057	1294.8	2.693
303.15 K, x1 = 0.3138	1332.6	2.846
303.15 K, x1 = 0.4104	1367.1	2.947
303.15 K, x1 = 0.5115	1403.4	3.003
303.15 K, x1 = 0.6124	1440.3	3.032
303.15 K, x1 = 0.7081	1475.4	3.036
303.15 K, x1 = 0.8123	1515.3	3.019
303.15 K, x1 = 0.9086	1552.5	2.996
308.15 K, x1 = 0.1093	1243.5	2.202
308.15 K, x1 = 0.2057	1275.6	2.371
308.15 K, x1 = 0.3138	1312.7	2.516
308.15 K, x1 = 0.4104	1347	2.616
308.15 K, x1 = 0.5115	1383.6	2.676
308.15 K, x1 = 0.6124	1420.5	2.702
308.15 K, x1 = 0.7081	1456.5	2.705
308.15 K, x1 = 0.8123	1497.9	2.688
308.15 K, x1 = 0.9086	1537.2	2.671
313.15 K, x1 = 0.1093	1223.7	1.92
313.15 K, x1 = 0.2057	1255.5	2.081
313.15 K, x1 = 0.3138	1292.1	2.224
313.15 K, x1 = 0.4104	1326	2.324
313.15 K, x1 = 0.5115	1362.6	2.388
313.15 K, x1 = 0.6124	1399.8	2.418
313.15 K, x1 = 0.7081	1437	2.426
313.15 K, x1 = 0.8123	1479.9	2.423
313.15 K, x1 = 0.9086	1521.9	2.413
318.15 K, x1 = 0.1093	1203.3	1.725
318.15 K, x1 = 0.2057	1234.5	1.874
318.15 K, x1 = 0.3138	1270.8	2.008
318.15 K, x1 = 0.4104	1305	2.106
318.15 K, x1 = 0.5115	1341.3	2.167
318.15 K, x1 = 0.6124	1379.1	2.204
318.15 K, x1 = 0.7081	1417.5	2.217
318.15 K, x1 = 0.8123	1461.9	2.216
318.15 K, x1 = 0.9086	1506.6	2.216

CC(O)CCO (configuration not stated) [1,3-butanediol]
[1]
Settings	speed of sound [m/s]	viscosity [mPa·s]
293.15 K	1539.6	130.32
298.15 K	1523.4	97.26
303.15 K	1506.3	69.84
308.15 K	1492.5	52.54
313.15 K	1480.8	39.42
318.15 K	1470.3	30.51

OCCCCO [1,4-butanediol] + NC=O
[2]
Settings	speed of sound [m/s]	viscosity [mPa·s]
293.15 K, x2 = 0.1052	1606	64.53
293.15 K, x2 = 0.1988	1594.7	44
293.15 K, x2 = 0.3041	1585.7	30.1
293.15 K, x2 = 0.4002	1577.7	21.2
293.15 K, x2 = 0.5009	1572.5	15.13
293.15 K, x2 = 0.6022	1569.9	11.33
293.15 K, x2 = 0.6992	1574.7	7.998
293.15 K, x2 = 0.8051	1583.7	5.512
293.15 K, x2 = 0.905	1597.1	4.026
298.15 K, x2 = 0.1052	1592.6	48.08
298.15 K, x2 = 0.1988	1579.2	31.14
298.15 K, x2 = 0.3041	1568.5	19.82
298.15 K, x2 = 0.4002	1560.2	12.5
298.15 K, x2 = 0.5009	1553.9	8.021
298.15 K, x2 = 0.6022	1551.3	6.233
298.15 K, x2 = 0.6992	1556	4.971
298.15 K, x2 = 0.8051	1565.5	3.96
298.15 K, x2 = 0.905	1580.5	3.372
303.15 K, x2 = 0.1052	1580.1	38.03
303.15 K, x2 = 0.1988	1565.3	24.03
303.15 K, x2 = 0.3041	1553.4	13.42
303.15 K, x2 = 0.4002	1544.2	7.715
303.15 K, x2 = 0.5009	1537.7	4.771
303.15 K, x2 = 0.6022	1534.5	3.722
303.15 K, x2 = 0.6992	1539.5	3.062
303.15 K, x2 = 0.8051	1550	2.658
303.15 K, x2 = 0.905	1566.3	2.754
308.15 K, x2 = 0.1052	1568.8	30.12
308.15 K, x2 = 0.1988	1552	18.56
308.15 K, x2 = 0.3041	1539.2	9.498
308.15 K, x2 = 0.4002	1529.4	4.663
308.15 K, x2 = 0.5009	1522.1	2.696
308.15 K, x2 = 0.6022	1518.6	2.188
308.15 K, x2 = 0.6992	1524	1.87
308.15 K, x2 = 0.8051	1534.8	1.924
308.15 K, x2 = 0.905	1552.1	2.366
313.15 K, x2 = 0.1052	1558.4	23.74
313.15 K, x2 = 0.1988	1539.9	13.81
313.15 K, x2 = 0.3041	1525.4	6.541
313.15 K, x2 = 0.4002	1514.6	2.871
313.15 K, x2 = 0.5009	1506.5	1.619
313.15 K, x2 = 0.6022	1503	1.272
313.15 K, x2 = 0.6992	1508	1.079
313.15 K, x2 = 0.8051	1519.6	1.525
313.15 K, x2 = 0.905	1537.9	1.998
318.15 K, x2 = 0.1052	1546.2	18.95
318.15 K, x2 = 0.1988	1525.7	10.75
318.15 K, x2 = 0.3041	1510.2	5.094
318.15 K, x2 = 0.4002	1498.6	2.024
318.15 K, x2 = 0.5009	1490.6	1.167
318.15 K, x2 = 0.6022	1486.8	1.003
318.15 K, x2 = 0.6992	1491.7	0.9823
318.15 K, x2 = 0.8051	1503.8	1.242
318.15 K, x2 = 0.905	1524	1.706
